# According to US20140079636A1, “TARGETED THERAPEUTICS” (priority 2012, published 2014):
# Tested on: MCF-7 breast cancer cells
# Assay: Mouse xenograft efficacy in an MCF-7 breast cancer model
# Assay type: in vivo
# Details: 150 or 100 mg/kg/1×wk IV, versus irinotecan alone or ganetespib + irinotecan
# Description: MCF-7 breast cancer cells were purchased from ATCC. […] Fetal bovine serum was then be added to the medium. The final concentration of fetal bovine serum was 10%. Cells were cultured at 37° C. and 5% CO2.
# Mice that were not put on treatment were euthanized. Animals were sourced through CRL (Wilmington, Mass.).
row,SMILES,Tumor growth suppression (tumor volume)
1,"CCc1c2c(nc3ccc(OC(=O)N4CCC(CCn5ccc6cc(-n7c(O)nnc7-c7cc(C(C)C)c(O)cc7O)ccc65)CC4)cc13)-c1cc3c(c(=O)n1C2)COC(=O)[C@]3(O)CC [SDC-TRAP-0063, 4,11-diethyl-4-hydroxy-3,14-dioxo-3,4,12,14-tetrahydro-1H-pyrano[3′,4′:6,7]indolizino[1,2-b]quinolin-9-yl 4-(2-(5-(3-(2,4-dihydroxy-5-isopropylphenyl)-5-hydroxy-4H-1,2,4-triazol-4-yl)-1H-indol-1-yl)ethyl)piperidine-1-carboxylate]",greater tumor growth suppression than effector moiety irinotecan alone or unconjugated binding moiety ganetespib and effector moiety irinotecan administered together

# Tested on: not listed separately
# Assay: Tissue distribution of ganetespib in female CD-1 nu/nu mice bearing RERF human NSCLC xenografts
# Assay type: in vivo, mouse
# Details: 5 min time point
# Description: Tissue Distribution of ganetespib in Female CD-1 nu/nu Mice Bearing RERF Human NSCLC Xenografts
# To confirm the distribution of ganetespib in blood, livers, kidneys, brains, hearts, lungs and tumors after IV administration of ganetespib to female CD-1 nu/nu mice bearing RERF human NSCLC xenografts, and to examine metabolic profiles of ganetespib in plasma, red blood cells, and above tissues.
# Animals: female CD-1 nu/nu mice bearing RERF human NSCLC xenografts (N=3/group)
# Dosage: 50 mg/kg Dose level: 10 mL/kg Formulation: 10% DMSO, 18% Cremophor RH40, 3.6% dextrose solution (DRD) Bleeding time points: 5 min, 6, 24 hr Collected tissues: blood (plasma and red blood cells (RBC)), liver, kidneys, brain, heart, lung, tumor
# Protein precipitation: 50 μL of 10 times diluted plasma or RBC+150 μL ACN (10 mM NH4OAc), vortexed and centrifuged at 10000 rpm for 8 min; 150 μL supernatant+150 μL water (10 mM NH4OAc)
# Protein precipitation: 100 μL homogenized tissue (1:3 tissue:PBS buffer)+100 μL ACN (10 mM NH4OAc), vortexed and centrifuged at 10000 rpm for 8 min
row,Mean concentration in plasma relative to RBC (times higher),SMILES
1,about 10,CC(C)c1cc(-c2n[nH]c(=O)n2-c2ccc3c(ccn3C)c2)c(O)cc1O [ganetespib]

# Biological target: T1, Hsp90α (Homo sapiens, UniProt P07900)
# T1 construct: purchased BPS Bioscience 50294
# Assay: Hsp90α binding assay (fluorescence polarization, FITC-labeled geldanamycin)
# Details: read-out: Hsp90 binding EC50
# Description: An Hsp90^α fluorescence assay kit from BPS Bioscience (Cat #50294) containing Hsp90 recombinant enzyme, FITC-labeled geldanamycin, assay buffer and a low binding 384-well plate was used to assay Hsp90^α binding. Dithiothreitol (DTT)(Cat #D0643) and bovine serum albumin (BSA)(Cat #A2153) were obtained from Sigma-Aldrich. Fluorescence polarization was measured using a PHERAstar microplate reader from BMG LABTECH GmbH, Ortenherg, Germany.
# The compounds were diluted to 1 mM in DMSO and loaded into a compound dilution plate to make 3-fold dilutions yielding a total of 8 concentrations. 1 µL of compound was transferred from the dilution plate to the low binding assay plate provided in the assay kit. 5 mL of Hsp90^□ binding solution was prepared having a final concentration of 7 ng/µL Hsp90^□, 5 nM FITC-labeled geldanamycin, 2 mM DTT and 0.1 mg/mL BSA. 49 μL of binding solution was added to each microplate well, incubated at room temperature for 1 hour, then read using the PHERAstar microplate reader. The high control sample contained no compound plus Hsp90^α; the low control sample contained no compound and no Hsp90^α. […] The IC50 was calculated using GraphPad Prism 4 software.
row,SMILES,EC50 [nM]
1,"CCc1c2c(nc3ccc(OC(=O)N4CCC(CCn5ccc6cc(-n7c(O)nnc7-c7cc(C(C)C)c(O)cc7O)ccc65)CC4)cc13)-c1cc3c(c(=O)n1C2)COC(=O)[C@]3(O)CC [SDC-TRAP-0063, 4,11-diethyl-4-hydroxy-3,14-dioxo-3,4,12,14-tetrahydro-1H-pyrano[3′,4′:6,7]indolizino[1,2-b]quinolin-9-yl 4-(2-(5-(3-(2,4-dihydroxy-5-isopropylphenyl)-5-hydroxy-4H-1,2,4-triazol-4-yl)-1H-indol-1-yl)ethyl)piperidine-1-carboxylate]",157
2,CCNC(=O)c1nnc(-c2cc(C(C)C)c(O)cc2O)n1-c1ccc(OC2CCN(C(=O)[C@@H]3CCCN3C(=O)Oc3ccc4nc5c(c(CC)c4c3)Cn3c-5cc4c(c3=O)COC(=O)[C@]4(O)CC)CC2)cc1 [SDC-TRAP-0209],54.6
3,"CCc1c2c(nc3ccc(OC(=O)N4CCN(Cc5ccc(-n6c(O)nnc6-c6cc(C(C)C)c(O)cc6O)cc5)CC4)cc13)-c1cc3c(c(=O)n1C2)COC(=O)C3(O)CC (centres unmarked) [SDC-TRAP-0046, 4,11-diethyl-4-hydroxy-3,14-dioxo-3,4,12,14-tetrahydro-1H-pyrano[3′,4′:6,7]indolizino[1,2-b]quinolin-9-yl 4-(4-(3-(2,4-dihydroxy-5-isopropylphenyl)-5-hydroxy-4H-1,2,4-triazol-4-yl)benzyl)piperazine-1-carboxylate]",102
4,"CC(C)c1cc(-c2nnc(O)n2-c2ccc(CC3CCN(CC(=O)Nc4cccc5c4CN(C4CCC(=O)NC4=O)C5=O)CC3)cc2)c(O)cc1O (centres unmarked) [SDC-TRAP-0116, 2-(4-(4-(3-(2,4-dihydroxy-5-isopropylphenyl)-5-hydroxy-4H-1,2,4-triazol-4-yl)benzyl)piperidin-1-yl)-N-(2-(2,6-dioxopiperidin-3-yl)-1-oxoisoindolin-4-yl)acetamide]",159
5,"CCNC(=O)c1nnc(-c2cc(C(C)C)c(O)cc2O)n1-c1ccc(CN2CCC(C(=O)N3CCC(n4cc(-c5cnc(N)c(O[C@H](C)c6c(Cl)ccc(F)c6Cl)c5)cn4)CC3)CC2)cc1 [SDC-TRAP-0134, (R)-4-(4-((4-(4-(4-(6-amino-5-(1-(2,6-dichloro-3-fluorophenyl)ethoxy)pyridin-3-yl)-1H-pyrazol-1-yl)piperidine-1-carbonyl)piperidin-1-yl)methyl)phenyl)-5-(2,4-dihydroxy-5-isopropylphenyl)-N-ethyl-4H-1,2,4-triazole-3-carboxamide]",95.4
6,CCc1c2c(nc3ccc(OC(=O)N4CCC[C@H]4C(=O)N4CCC(CCn5ccc6cc(-n7c(O)nnc7-c7cc(C(C)C)c(O)cc7O)ccc65)CC4)cc13)-c1cc3c(c(=O)n1C2)COC(=O)[C@]3(O)CC [SDC-TRAP-0210],91
7,"CCc1c2c(nc3ccc(OC(=O)N4CCC[C@H]4C(=O)N4CCN(c5ccc(-n6c(O)nnc6-c6cc(C(C)C)c(O)cc6O)cc5)CC4)cc13)-c1cc3c(c(=O)n1C2)COC(=O)[C@]3(O)CC [SDC-TRAP-0204, (S)—(S)-4,11-diethyl-4-hydroxy-3,14-dioxo-3,4,12,14-tetrahydro-1H-pyrano[3′,4′:6,7]indolizino[1,2-b]quinolin-9-yl 2-(4-(4-(3-(2,4-dihydroxy-5-isopropylphenyl)-5-hydroxy-4H-1,2,4-triazol-4-yl)phenyl)piperazine-1-carbonyl)pyrrolidine-1-carboxylate]",82.6
8,"CCc1c2c(nc3ccc(O)cc13)-c1cc3c(c(=O)n1C2)COC(=O)[C@@]3(CC)OC(=O)N1CCC(CCn2ccc3cc(-n4c(O)nnc4-c4cc(C(C)C)c(O)cc4O)ccc32)CC1 [SDC-TRAP-0064, (S)-4,11-diethyl-9-hydroxy-3,14-dioxo-3,4,12,14-tetrahydro-1H-pyrano[3′,4′:6,7]indolizino[1,2-b]quinolin-4-yl 4-(2-(5-(3-(2,4-dihydroxy-5-isopropylphenyl)-5-hydroxy-4H-1,2,4-triazol-4-yl)-1H-indol-1-yl)ethyl)piperidine-1-carboxylate]",122
9,"CCc1c2c(nc3ccc(OC(=O)N4CCN(c5ccc(-n6c(O)nnc6-c6cc(C(C)C)c(O)cc6O)cc5)CC4)cc13)-c1cc3c(c(=O)n1C2)COC(=O)C3(O)CC (centres unmarked) [SDC-TRAP-0045, 4,11-diethyl-4-hydroxy-3,14-dioxo-3,4,12,14-tetrahydro-1H-pyrano[3′,4′:6,7]indolizino[1,2-b]quinolin-9-yl 4-(4-(3-(2,4-dihydroxy-5-isopropylphenyl)-5-hydroxy-4H-1,2,4-triazol-4-yl)phenyl)piperazine-1-carboxylate]",96.6
10,"CC(C)c1cc(-c2nnc(O)n2-c2ccc(CC(=O)N(C)CCOC(=O)Nc3cccc4c3CN(C3CCC(=O)NC3=O)C4=O)cc2)c(O)cc1O (centres unmarked) [SDC-TRAP-0127, 2-(2-(4-(3-(2,4-dihydroxy-5-isopropylphenyl)-5-hydroxy-4H-1,2,4-triazol-4-yl)phenyl)-N-methylacetamido)ethyl(2-(2,6-dioxopiperidin-3-yl)-1-oxoisoindolin-4-yl)carbamate]",102
11,"COc1cc(O)c(-c2nnc(C(=O)NC(C)C)n2-c2ccc(CN3CCC(C(=O)Nc4cccc5c4CN(C4CCC(=O)NC4=O)C5=O)CC3)cc2)cc1C(C)C (centres unmarked) [SDC-TRAP-0115, N-(2-(2,6-dioxopiperidin-3-yl)-1-oxoisoindolin-4-yl)-1-(4-(3-(2-hydroxy-5-isopropyl-4-methoxyphenyl)-5-(isopropylcarbamoyl)-4H-1,2,4-triazol-4-yl)benzyl)piperidine-4-carboxamide]",203
12,"CCNC(=O)c1nnc(-c2cc(C(C)C)c(O)cc2O)n1-c1ccc(CN2CCC(C(=O)N3CCC(C(=O)N[C@H]4C[C@H](O[C@H]5C[C@](O)(C(=O)CO)Cc6c(O)c7c(c(O)c65)C(=O)c5c(OC)cccc5C7=O)O[C@@H](C)[C@H]4O)CC3)CC2)cc1 [SDC-TRAP-0198, 1-(1-(4-(3-(2,4-dihydroxy-5-isopropylphenyl)-5-(ethylcarbamoyl)-4H-1,2,4-triazol-4-yl)benzyl)piperidine-4-carbonyl)-N-((2S,3S,4S,6R)-3-hydroxy-2-methyl-6-(((1S,3S)-3,5,12-trihydroxy-3-(2-hydroxyacetyl)-10-methoxy-6,11-dioxo-1,2,3,4,6,11-hexahydrotetracen-1-yl)oxy)tetrahydro-2H-pyran-4-yl)piperidine-4-carboxamide]",93.3
